We go through 17 compounds from patent US8481524B2, “c-MET protein kinase inhibitors” (Vertex Pharmaceuticals Incorporated, priority 2007, dated 2013).

pIC50: −log10 of the molar value.

One may read the pIC50 as −log10 of the IC50, conventionally taken in molar units. The low end stands for a high IC50, the high end for a low IC50.

The subject of this assay is c-Met in Snu5 gastric carcinoma cells. As to the kind of experiment: Inhibition of c-Met activity in Snu5 gastric carcinoma cells (Snu5-AP1-Luc-Pest luciferase signal). It is filed as cell-based, human. As to conditions: for pIC50: Homo sapiens, SNU-5, Snu5-AP1-Luc-Pest cells, 6 hours, Steady Glo luminescence; for activity compared with corresponding analog wherein R5 is hydrogen: Snu5 gastric carcinoma cell assay, comparison of IC50 values. An excerpt: Compounds of the invention were also screened for their ability to inhibit the Luciferase-induced signal in an engineered Snu5 cell line. Snu5 [obtained from American Type Culture Collection (Catalog number CRL-5973)] is a human gastric carcinoma known to overexpress c-Met, which is constitutively active. The cell line was transduced with the retrovirus, pCLPCX, which contains a genetic construct consisting of 6×AP1 promoter response elements and a luciferase gene having a C-terminal PEST sequence (proteolytic signal from mouse ornithine decarboxylase, which reduces the half-life of the luciferase). The constitutively active cMet activates cellular pathways (principally MAP kinase), resulting in AP-1-induced transcription of luciferase-PEST and translation into the final product, the activity of which is quantifiable as a chemiluminescent readout upon the addition of luciferin (Steady-Glo from Promega.). Residual luminescence is strongly correlated to the inhibition of c-Met. A stable cell line was obtained by selecting the new cell line (Snu5-AP1-Luc-Pest) with puromycin. The cells were grown in complete media [Iscove's media (Invitrogen) containing 10% fetal bovine serum (FBS, Hyclone) and penicillin/gentamycin (Invitrogen)]. Compounds of the invention were dissolved in DMSO to make 10 mM initial stock solutions. Serial dilutions in DMSO were then made and transferred to complete medium to make a 10× solution. The Snu5-AP1-Luc-Pest cells were counted and diluted to 200,000-cells/mL solution. The cells (90 μL) were added to each well in a 96-well black with clear bottom plate (Costar). Then 10 μL of the 10× compound solution was added to the cells in triplicate. The plates were incubated in a 37° C./5% CO2 incubator. After 6 hours, 50 μL of the Steady Glo reagent (Promega) was added to each well and placed on a plate shaker for 5 minutes to ensure that the cells were completely lysed. The plate was read on a 1450 Microbeta Liquid Scintillation and Luminescence Counter (Perkin-Elmer). The IC50s were calculated using a 4-parameter fit using the graphing software Prism (GraphPad).

Regarding `CC(C)Oc1ccc(-n2nnnc2-c2cc(-c3cc4c(s3)CCNCC4)cnc2N)c(F)c1F` [Compound 33], the pIC50 was ≥ 7.00. The same measure, in the same setting: for `Cc1ccc(-n2nnnc2-c2cc(-c3cnn(C4C[C@H]5CNC[C@H]5C4)c3)cnc2N)c(F)c1F` (stereo partly shown) [Compound 48] the value was 6.00 to 7.00; for `COc1ccc(-n2nnnc2-c2cc(-c3cnn(C4CCCNCC4)c3)cnc2N)c(F)c1F` (stereo not shown) [Compound 9], 6.00 to 7.00. Still for that read-out and setting: next, `CC(C)Oc1ccc(-n2nnnc2-c2cc(-c3cnn(C4CCNCC4)c3)cnc2N)c(F)c1F` [Compound 26]: ≥ 7.00; `COc1ccc(-n2nnnc2-c2cc(-c3cc4c(s3)CCNCC4)cnc2N)c(F)c1` [Compound 51]: 6.00 to 7.00. With `COc1ccc(-n2nnnc2-c2cc(-c3cnn([C@@H]4CCCNC4)c3)cnc2N)c(F)c1F` [Compound 8, 3-(1-(2,3-Difluoro-4-methoxyphenyl)-1H-tetrazol-5-yl)-5-(1-((R)-piperidin-3-yl)-1H-pyrazol-4-yl)pyridin-2-amine], the pIC50 is ≥ 7.00 and the “activity compared with corresponding analog wherein R5 is hydrogen” value was “more active”.

On to `Cc1ccc(-n2nnnc2-c2cc(-c3cnn([C@H]4CCNC4)c3)cnc2N)c(F)c1F` [Compound 7], for which the pIC50 was 6.00 to 7.00 and the “activity compared with corresponding analog wherein R5 is hydrogen” value was “more active”.

As for `COc1cc(F)c(-n2nnnc2-c2cc(-c3cnn(C4CCNCC4)c3)cnc2N)c(F)c1` [Compound 37], the pIC50 is ≥ 7.00. For `COc1ccc(-n2nnnc2-c2cc(-c3cnn(C4CC5CCC(C4)N5)c3)cnc2N)c(F)c1F` (stereo not shown) [Compound 16], the pIC50 was ≥ 7.00 and the “activity compared with corresponding analog wherein R5 is hydrogen” value is “more active”. Take `Cc1ccc(-n2nnnc2-c2cc(-c3cc4c(s3)CCNC(C)C4)cnc2N)c(F)c1F` (stereo not shown) [Compound 28]: the pIC50 was ≥ 7.00 and the “activity compared with corresponding analog wherein R5 is hydrogen” value is reported as “more active”.

Consider `COc1ccc(-n2nnnc2-c2cc(-c3cnn(C4CC5CCC(C4)N5)c3)cnc2N)c(F)c1F` (stereo not shown) [Compound 17], for which the “activity compared with corresponding analog wherein R5 is hydrogen” value is “more active”.

In the case of `Cc1ccc(-n2nnnc2-c2cc(-c3cn(C4CCCNCC4)nc3C)cnc2N)c(F)c1F` (stereo not shown) [Compound 46], the negative-log IC50 (pIC50) is ≥ 7.00. `COc1ccc(-n2nnnc2-c2cc(-c3cnn([C@H]4CCCNC4)c3)cnc2N)c(F)c1F` [Compound 10]: the pIC50 was ≥ 7.00 and the “activity compared with corresponding analog wherein R5 is hydrogen” value is reported as “more active”. In the same order, the values of `Cc1ccc(-n2nnnc2-c2cc(-c3cnn([C@@H]4CCNC4)c3)cnc2N)c(F)c1F` [Compound 1] are 6.00 to 7.00 and “more active”.

For `COCCOc1ccc(-n2nnnc2-c2cc(-c3cnn(C4CCNCC4)c3)cnc2N)c(F)c1F` [Compound 35], the pIC50 is 6.00 to 7.00.

Regarding `CCC1Cc2sc(-c3cnc(N)c(-c4nnnn4-c4ccc(OC)c(F)c4F)c3)cc2CCN1` (stereo not shown) [Compound 19], the pIC50 was ≥ 7.00 and the “activity compared with corresponding analog wherein R5 is hydrogen” value is reported as “more active”. In the case of `Cc1ccc(-n2nnnc2-c2cc(-c3cnn([C@H]4CCCNC4)c3)cnc2N)c(F)c1F` [Compound 5], the pIC50 was ≥ 7.00 and the “activity compared with corresponding analog wherein R5 is hydrogen” value is listed as “more active”.
